We go through one substance from patent publication EP1336409B1 (priority 1995, dated 1997).

The assay relates to spinal pia-arachnoid membranes. Details: species or system Macaque nemestrina monkeys. The conditions noted are these: read-out: IC50, displacement of [125I]SNX-111 binding.

For the substance [Nle^12] SNX-111 [SNX-194], the IC50 is 41 µM.
